Columns and labels:
HFDPC [1] = test: Quantitative real-time RT-PCR of hair growth markers in HFDPC, Experimental Example 3; assay type: cell-based, human; details: vs 0.1 M minoxidil (so in the source), 48 hours
HFDPCs = test: Proliferation of HFDPCs (MTT), Experimental Example 1; assay type: cell-based, human; details: 48 hours, vs untreated cells
From the text: The activation effect by a glycoside of an oleanane-type triterpenoid was examined using dermal papilla cells of human hair follicles (HFDPCs) which are mesenchymal cells separated from the papilla of the scalp hair follicle of a normal human. As the glycoside of the oleanane-type triterpenoid (which may hereinafter be referred to as “saponin”), arganine D, arganine E, and butyroside D were used. A high proliferation rate of the HFDPCs is correlated with the acceleration of the hair growth cycle.
First, HFDPCs were seeded in a 96-well plate at […] and incubated at 37° C. in a humidified atmosphere of 5% CO2. As a culture medium, a culture medium for hair papilla cell growth to which growth factors (a bovine fetal serum, an insulin, a transferrin, a triiodothyronine, a bovine pituitary extract, or a cyproterone solution) had been added was used.
After 24 hours, the culture medium was exchanged with a culture medium containing each of various concentrations of each saponin, and the cells were incubated for 48 hours.
Subsequently, the cell proliferation was measured using 3-(4,5-dimethyl-thiazol-2-yl)-2,5-diphenyltetrazolium bromide (MTT). Specifically, an MTT reagent (5 mg/mL) was added to the cells and incubated for 8 hours, then 10% sodium dodecyl sulfate (SDS) was added thereto, and the cells were incubated overnight. Thereafter, the absorbance at 570 nm was measured using a microplate reader, and the cell proliferation was quantified as the proportion (%) of the absorbance to an absorbance of the untreated cells. In addition, the survival rate of cells was also measured by a trypan blue exclusion method.

HFDPC [2] = test: Quantitative real-time RT-PCR of hair growth markers in HFDPC, Experimental Example 3; assay type: cell-based, human; details: 48 hours; for expression level of the FGF1 gene in the HFDPC / expression level of the ALPL gene in the HFDPC / expression level of the CTNNB1 gene in HFDPC: vs control
Description: The HFDPC was treated with butyroside D, and then the expression of the hair growth marker was confirmed by quantitative real-time RT-PCR.
As the hair growth markers, a CTNNB1 gene (β-catenin), an ALPL gene (alkaline phosphatase), and an FGF1 gene (fiblobrast growth factor 1) were examined. It is known that the β-catenin induces anagen of the hair cycle and promotes the proliferation of keratinocytes. ALPL is a representative hair growth marker in the hair papilla cells. FGF1 is a marker for morphogenesis of hair follicles.
HFDPCs were seeded in a 6-well plate at 5×10^4 cells/well and incubated at 37° C. for 24 hours. Subsequently, the culture medium was removed and exchanged with a culture medium including 0 (Control), 0.5, 5, and 10 nM of butyroside D. In addition, for comparison, cells treated with a culture medium including minoxidil (0.1 μM), which is an existing pharmaceutical product, were also prepared.
Subsequently, after 48 hours, the cells were washed with cold PBS and a total RNA was extracted using an ISOGEN kit (Nippon Gene Co., Ltd.). Next, the total RNA was quantified using a NanoDrop 2000 spectrophotometer (Thermo Fisher Scientific) and quantitative real-time RT-PCR analysis was performed.
First, using a SuperScript III reverse transcription kit (Thermo Fisher Scientific), a cDNA was synthesized from the extracted total RNA by a cycling protocol of 95° C. for 10 minutes, 40 cycles of 95° C. for 15 seconds, and 60° C. for 1 minute.
Subsequently, a real-time PCR was performed using a 7500 Fast Real-Time PCR system (Software 1.3.1, Thermo Fisher Scientific) and TaqMan probes specific for CTNNB1, ALPL, and FGF1. GAPDH was used as an endogenous control and the relative mRNA amount was calculated by applying a 2^−ΔΔCt method by comparison with GAPDH.

C3H male mouse = test: Hair growth promoting effect in vivo, application to depilated dorsal skin, Experimental Example 5; details: 150 μL of 1% applied to dorsal skin every day for 20 days
Description: The oleanane-type triterpenoid was applied to the dorsal skin of a mouse and the hair growth promoting effect was examined. Maslinic acid was used as the oleanane-type triterpenoid. In addition, for comparison, a group in which minoxidil was used and a control group in which only a solvent was applied were prepared.
FIG. 12 is a schematic view showing an experimental schedule. After acclimatization of a C3H male mouse, the dorsal skin was depilated with a shaver and a depilatory cream. Thereafter, 150 μL of 1% minoxidil (n=8), 1% maslinic acid (n=6), or a solvent (n=8) was applied to the mouse in each group every day for 20 days, and the mouse was observed over time.
It is known that the hair cycle of a mouse has three stages of an anagen, a catagen, and a telogen. During the anagen (the 1st day to the 16th day), the hair follicle grows into the deep subcutaneous part. In the catagen (the 17th day to the 19th day), the hair follicle stops growing and regresses to the upper subcutaneous part. In the telogen (the 20th day to the 29th day), the hair shaft is in a state where it can be lost at any time. It is known that the color of the dorsal skin of a mouse changes to pink, gray, and black due to the hair cycle. FIG. 13 is a view showing a change in the color of the dorsal skin of a mouse due to the hair cycle.

dorsal skin [3] = test: Gene ontology (GO), GO enrichment and tissue-specific expression analysis of transcriptome, Experimental Example 7; assay type: in vivo, mouse; details: 20th day
Description: Gene ontology (GO) analysis and GO enrichment analysis were performed based on the results of the transcriptome analysis in Experimental Example 6.
Subsequently, term enrichment analysis of the genes with expression increased specifically with respect to the skin tissue was performed. Using tissue-specific expression analysis (TSEA), genes related to the skin tissue were filtered, and functions that were specifically enriched in the maslinic acid treatment group and the tieghemelin treatment group and were not enriched in the minoxidil treatment group were selected.

dorsal skin [4] = test: Transcriptome analysis and extended network analysis of dorsal skin, Experimental Examples 6 and 8; assay type: in vivo, mouse; details: 20th day, 1% applied daily; maslinic acid group vs tieghemelin group
Description: A mouse in each group of Experimental Example 5 and a mouse in the group which had been subjected to the same treatment as in Experimental Example 5 using 1% tieghemelin (n=6) were euthanized on the 20th day, and the dorsal skin was collected and subjected to transcriptome analysis.
(§1) Extended network analysis was performed based on the results of the transcriptome analysis in Experimental Example 6. FIGS. 20 to 22 are views showing the results of the extended network analysis. FIG. 20 is an analysis result obtained from a dataset of the minoxidil treatment group, FIG. 21 is an analysis result obtained from a dataset of the maslinic acid treatment group, and FIG. 22 is an analysis result obtained from a dataset of the tieghemelin treatment group. In FIGS. 20 to 22, a white circle indicates a gene with increased expression, and a black circle indicates a gene with decreased expression. In addition, the size of the circle indicates the magnitude of a change in expression level.

Iqcb1 = Iqcb1 expression from transcriptome / extended network analysis, Experimental Example 8; assay type: in vivo, mouse; details: dorsal skin, 20th day, 1% applied daily
Description: as §1
DDX58 is an innate immune receptor that senses viral nucleic acids in the cytoplasm and activates a downstream signal transduction cascade leading to the production of type I interferons or inflammatory cytokines. IQCB1 is a protein known to be involved in formation of cilium.

dorsal skin [5] = test: Fluorescence immunostaining of dorsal skin tissue sections, Experimental Example 10; assay type: in vivo, mouse; details: 20th day
From the text: A mouse in each group of Experimental Examples 5 and 6 was euthanized on the 20th day, the dorsal skin was collected, and the tissue section was subjected to immunostaining.
FIG. 23 is a photomicrograph showing the results of detecting the expressions of β-catenin and K14 by fluorescence immunostaining. In addition, the nuclei were stained with 4′,6-diamidino-2-phenylindole (DAPI). The β-catenin is a hair growth promoting marker and is also a marker for the start of the anagen. K14 is an epidermal marker and is known to increase with the differentiation of hair follicle stem cells.
FIG. 24 is a photomicrograph showing the results of detecting the expression of VEGF by fluorescence immunostaining. In addition, the nuclei were stained with DAPI. VEGF is known to improve the vascularization of hair follicles, increase the size of hair follicles and hair, and promote the growth and circulation of hair follicles.

hair cycle-related genes = test: Fluctuation in expression of hair cycle-related genes from transcriptome, Experimental Example 9; assay type: in vivo, mouse; details: dorsal skin, 20th day
From the text: A fluctuation in expression of the hair cycle-related genes was examined, based on the results of the transcriptome analysis in Experimental Example 6.

[6] = fluorescence immunostaining, dorsal skin

butyroside D
effect of increasing the expression level of the ALPL gene compared with minoxidil positive control (HFDPC [1]): more than the effect of the treatment with 0.1 M minoxidil | effect of increasing the expression level of the CTNNB1 gene compared with minoxidil positive control (HFDPC [1]): more than the effect of the treatment with 0.1 M minoxidil | proliferation of HFDPCs (HFDPCs; 2 μM): significantly promotes the proliferation | proliferation of HFDPCs (HFDPCs; 5 μM): significantly promotes the proliferation | proliferation of HFDPCs (HFDPCs; 10 μM): significantly promotes the proliferation | expression level of the FGF1 gene in the HFDPC (HFDPC [2]; 0.5 nM): significantly increased | expression level of the ALPL gene in the HFDPC (HFDPC [2]; 5 nM): significantly increased | expression level of the CTNNB1 gene in HFDPC (HFDPC [2]; 5 nM): significantly increased | expression level of the FGF1 gene in the HFDPC (HFDPC [2]; 5 nM): significantly increased | expression level of the ALPL gene in the HFDPC (HFDPC [2]; 10 nM): significantly increased | expression level of the CTNNB1 gene in HFDPC (HFDPC [2]; 10 nM): significantly increased | expression level of the FGF1 gene in the HFDPC (HFDPC [2]; 10 nM): significantly increased | effect of increasing the expression level of the ALPL gene compared with minoxidil positive control (sentence in the FGF1 paragraph) (HFDPC [2]; vs 0.1 μM minoxidil): more than the effect of the treatment with 0.1 μM minoxidil

arganine D
proliferation of HFDPCs (HFDPCs; 2 μM): significantly promotes the proliferation | proliferation of HFDPCs (HFDPCs; 5 μM): significantly promotes the proliferation | proliferation of HFDPCs (HFDPCs; 10 μM): significantly promotes the proliferation

Nc1cc(N2CCCCC2)nc(N)[n+]1[O-] [minoxidil, reference compound]
influence on the body weight of the mouse (C3H male mouse): No influence on the body weight | number of genes with decreased expression common among the minoxidil, maslinic acid and tieghemelin treatment groups (dorsal skin [3]): 316 | number of genes with increased expression common among the minoxidil, maslinic acid and tieghemelin treatment groups (dorsal skin [3]): 342

C[C@@H]1O[C@@H](O[C@@H]2[C@@H](O)[C@H](O[C@@H]3[C@@H](O)[C@@H](O)[C@H](O[C@H]4[C@H](OC(=O)[C@]56CCC(C)(C)C[C@H]5C5=CC[C@@H]7[C@@]8(C)C[C@H](O)[C@H](O[C@@H]9O[C@H](C(=O)O)[C@@H](O)[C@H](O)[C@H]9O)[C@@](C)(CO)[C@@H]8[C@H](O)C[C@@]7(C)[C@]5(C)C[C@H]6O)OC[C@H](O)[C@@H]4O)O[C@H]3C)OC[C@H]2O)[C@H](O)[C@H](O)[C@H]1O [tieghemelin]
pattern of differentially expressed genes in the dorsal skins (dorsal skin [4]): showed the same pattern | Iqcb1 expression (Iqcb1): upregulated | expression level of Iqcb1 compared with the minoxidil treatment group (Iqcb1): increased more | number of genes with decreased expression common among the minoxidil, maslinic acid and tieghemelin treatment groups (dorsal skin [3]): 316 | number of genes with decreased expression common between the minoxidil and tieghemelin treatment groups (dorsal skin [3]): Ninety-four | number of genes with increased expression common among the minoxidil, maslinic acid and tieghemelin treatment groups (dorsal skin [3]): 342 | number of genes with increased expression common between the minoxidil and tieghemelin treatment groups (dorsal skin [3]): One-hundred-twenty-eight | functions specifically enriched among skin-tissue genes with increased expression (TSEA) (dorsal skin [3]; functions not enriched in the minoxidil treatment group): the proliferation of keratinocytes and epithelial cells, the control of the MAPK cascade, the intercellular adhesion, and the activation of the cytokine receptor interaction | stage of the hair follicle from its shape (dorsal skin [5]; dorsal skin section): anagen (II) | expression of K14 (dorsal skin [5]; [6]): highly expressed | expression of VEGF (dorsal skin [5]; [6]): highly expressed | expression of β-catenin (dorsal skin [5]; [6]): highly expressed | expression level of Aepb1 (hair cycle-related genes): decreased | expression level of KRT15 (hair cycle-related genes): decreased | expression of NF-κB (hair cycle-related genes): decreased

C[C@@H]1O[C@@H](O[C@H]2[C@H](OC(=O)[C@]34CCC(C)(C)C[C@H]3C3=CC[C@@H]5[C@@]6(C)C[C@H](O)[C@H](O[C@@H]7O[C@H](CO[C@@H]8O[C@H](CO)[C@@H](O)[C@H](O)[C@H]8O)[C@@H](O)[C@H](O)[C@H]7O)[C@@](C)(CO)[C@@H]6[C@H](O)C[C@@]5(C)[C@]3(C)CC4)OC[C@@H](O)[C@@H]2O)[C@H](O)[C@H](O)[C@H]1O[C@@H]1OC[C@@H](O)[C@H](O[C@@H]2OC[C@](O)(CO)[C@H]2O)[C@H]1O [arganine E]
proliferation of HFDPCs (HFDPCs; 2 μM): significantly promotes the proliferation
